Source: patent publication US20090075941A1, “TREATING NEOPLASMS” (THE UAB RESEARCH FOUNDATION, priority 2006, published 2009)

Experiments:
[1] = system: p38 phosphorylation in AB12 cells; experiment: Western blot, phosphorylation of p38 (Example 1); format: cell-based, mouse; conditions: 24 h
Method: (§1) Western blotting. AB12 and AC29 cells were plated on 6-well plates in normal culture medium until near confluency. The cells were then rinsed with sterile PBS and cultured for further 24 h in serum-free culture medium, in the presence or absence of 2×10^−4-10^−5 M risedronate, zoledronate or PBS control, with or without 25 μM geranylgeraniol, or the same volume of ethanol as a vehicle control. Culture medium was discarded and the cells were harvested in lysis buffer (20 mM Tris pH 7.4, 150 mM NaCl, 1 mM EDTA, 1 mM EGTA, 1% Triton, 2.5 mM sodium pyrophosphate, 1 mM β-glycerolphosphate, 1 mM Na3VO4, 1 μg/ml leupeptin (Cell Signaling Technology, Inc.; Danvers, Mass.)) and clarified by centrifugation. After boiling the supernatants in reducing SDS sample buffer, equal amounts of protein (˜50 μg) were loaded per lane and the samples were electrophoresed on 10% polyacrylamide SDS gel and transferred to a nitrocellulose membrane. Unprenylated Rap1A was detected with the antibody SC-1482 and total Rap1 (both prenylated and unprenylated forms of both Rap1A and Rap1B) was detected with the antibody SC-65 (Santa Cruz Biotechnology, Inc.; Santa Cruz, Calif.), according to the manufacturer's recommendations. The phosphorylation status of p38 was studied with anti-phospho-p38 and anti-total p38 antibodies (Cell Signaling Technology, Inc.), as recommended by the manufacturer. […]

[2] = system: p38 phosphorylation in AC29 cells; experiment: Western blot, phosphorylation of p38 (Example 1); format: cell-based, mouse; conditions: 24 h
Method: as §1

[3] = system: AB12 cells; experiment: In vitro growth assay, BrdU incorporation; format: cell-based, mouse; conditions: with p38 inhibitor SB202190 10^−5 M vs inactive control compound, 5 days
Method: (§2) In vitro growth assay. […] Briefly, […] were plated onto 96-well plates in 100 μl of normal culture medium. The cells were then treated with the indicated agents for various times. BrdU was added to the wells for the final 24 h and incorporated BrdU was detected with sequential additions of monoclonal mouse anti-BrdU antibody and HRP-conjugated anti-mouse antibody. After addition of the substrate for HRP, intensity of the colored reaction product, which is proportional to the amount of BrdU incorporated into the cells, was read with spectrophotometer at […].

[4] = system: AC29 cells; experiment: In vitro growth assay, BrdU incorporation; format: cell-based, mouse; conditions: with p38 inhibitor SB202190 10^−5 M vs inactive control compound, 5 days
Method: as §2

[5] = system: AB12 cells; experiment: Intraperitoneal mouse mesothelioma model, survival; format: in vivo, BALB/c mice; conditions: AB12 i.p.
Method: In vivo mesothelioma models. Female BALB/c mice, four to eight weeks of age, were obtained from the National Cancer Institute-Frederick Cancer Research Facility (Frederick, Md.) and were housed in the Pathogen-Free Rodent Shared Facility (Comprehensive Cancer Center, University of Alabama at Birmingham). All animal procedures were performed, in accordance with recommendations for the proper care and use of laboratory animals and were approved by the local IACUC. Subcutaneous (s.c.) and intraperitoneal (i.p.) mouse mesothelioma models were evaluated. In the s.c. model, 3×10^6 AB12 cells were first injected s.c. into cohorts of BALB/c mice. Treatments with i.p. BPs or vehicle were started when tumors became palpable on day 10 and continued every six days for a total of 4 treatments. Tumor size was measured bidimensionally with calipers every two to three days and tumor volume calculated by the formula (length×width^2)÷2. Mice were euthanized before tumors reached the size of 2000 mm^3. In the i.p. model, AC29 or AB12 cells (5×10^5/0.5 ml) were injected i.p, into cohorts of 10-12 BALB/c using a 26-gauge needle. Treatment was initiated 6 days after tumor inoculation and the mice were followed for survival. In the i.p. model risedronate (15 mg/kg), zoledronate (0.5 mg/kg) or PBS were administered i.p. three times a week for two weeks.

[6] = system: MDA-MB-231 cells; experiment: Cell viability, MTS-assay; format: cell-based, human
Method: (§3) Cell viability assays. Cells were plated on 96-well plates at the density of 1×10^3 cells in 100 μl per well in normal culture medium, with or without of the indicated concentrations of the various bisphosphonate combinations and or 1 mM CaCl2, 1 mM EGTA or vehicle and cultured for 48 h. Cell viability was assessed with 3-(4,5-dimethylthiazol-2-yl)-5-(3-carboxy tetrazolium, inner salt (MTS)-assays (CellTiter Aqueous One 96 from Promega; Madison, Wis.) according to the manufacturer's instructions. For each treatment, a PBS-control group was run simultaneously on the same plate. The results for each treatment were calculated as % of the corresponding PBS-group.

[7] = system: AB-12 cells; experiment: Cell viability, MTS-assay; format: cell-based, mouse
Method: as §3

[8] = system: J774 cells; experiment: Cell viability, MTS-assay; format: cell-based
Method: as §3

[9] = 1 mM CaCl2, N-BP 10^−4 M or p-BP 10^−3 M
[10] = N-BP 10^−4 M + clodronate 10^−3 M
[11] = N-BP 10^−4 M + etidronate 10^−3 M

O=P(O)(O)C(O)(Cc1cccnc1)P(=O)(O)O [risedronate]
p38 phosphorylation [1]: dose-dependent increase
p38 phosphorylation [2]: dose-dependent increase
BP-induced growth inhibition on inhibition of p38 [3]: augmented
BP-induced growth inhibition on inhibition of p38 [4]: augmented
long-term (> 60 days) survivors ([5]; groups of 12 mice, risedronate 15 mg/kg i.p.): three
median survival ([5]; zoledronate 0.5 mg/kg or risedronate 15 mg/kg i.p. three times a week for two weeks, PBS 26 days): 30 days
effect of added Ca2+ on the bisphosphonate's growth inhibitory effect [6, 9]: enhanced
effect of excess clodronate on the viability change induced by the nitrogen-containing bisphosphonate [6, 10]: did not interfere
effect of excess etidronate on the viability change induced by the nitrogen-containing bisphosphonate [6, 11]: increased
effect of added Ca2+ on the bisphosphonate's growth inhibitory effect [7, 9]: enhanced
effect of added EGTA on the bisphosphonate's growth inhibitory effect ([7]; 1 mM EGTA, N-BP 10^−4 M): enhanced
effect of excess clodronate on the viability change induced by the nitrogen-containing bisphosphonate [7, 10]: decreased slightly, but significantly cell viability
effect of excess etidronate on the viability change induced by the nitrogen-containing bisphosphonate [7, 11]: decreased cell viability
effect of added EGTA on the bisphosphonate's growth inhibitory effect ([8]; 1 mM EGTA, N-BP 10^−4 M or clodronate 10^−3 M): reversed
cell viability ([8]; 10^−4 M): significantly decreased cellular viability
effect of excess clodronate on the viability change induced by the nitrogen-containing bisphosphonate [8, 10]: significantly reversed
effect of excess etidronate on the viability change induced by the nitrogen-containing bisphosphonate [8, 11]: reversed
